In patent publication US20220193016A1, “COMPOSITIONS, METHODS AND USES FOR TARGETING C-TERMINAL BINDING PROTEIN (CtBP) IN [sequence] BRAIN INJURY” (THE REGENTS OF THE UNIVERSITY OF COLORADO, A BODY CORPORATE, priority 2019, published 2022):

Columns and labels:
[1] = test system: imiquimod-induced psoriasis-like skin inflammation; experiment: Imiquimod animal model of psoriasis-like skin inflammation; type: in vivo, mice; conditions: peptides topically daily from day 3 of imiquimod course; day 7
[2] = test system: DNFB-induced contact hypersensitivity (CHS); experiment: DNFB mouse model of contact hypersensitivity; type: in vivo; conditions: peptides topically on the ear day 6 through day 9
From the text: In another exemplary method, FIG. 14A-14B illustrate the effectiveness of additional CtBP inhibiting peptides in reducing skin inflammation caused by sensitization and elicitation with the hapten 2,4-dinitrofluorobenzene (DNFB). Peptides MH-3, MH-4, MH-6 and MH-7 were derived from MH-2, all containing a polyarginine sequence to promote membrane transduction, with variations at the linker or flanking sequence of the PIDLS motif. […] The thickness of the epidermis of the ear is indicated by the red square bracket. It is noted that the DNFB-induced CHS in mice is an established model for human allergic contact dermatitis, both of which are T cell-mediated delayed hypersensitivity responses. Mice (n=3) were sensitized on day 1 with […] of 0.5% DNFB on the abdomen surface and challenged on day 6 with […] of 0.5% DNFB on both sides of the ears to trigger T memory cell-mediated hypersensitivity reaction. Peptides ([…]) were topically administered on both sides of the ear 1 h after the DNFB application on day 6 through day 9. Ear swelling and reddening were examined daily till the end point (day 9).

BV2 cells = experiment: Expression of CtBP target genes in LPS-activated BV2 microglia cell line (RT-qPCR); type: cell-based, mouse; conditions: siRNA 24 h, then LPS 200 ng/ml 6 h
Method: In one exemplary method, BV2 cells were treated with CtBP-specific siRNAs 24 hours prior to a 6-hour treatment with LPS. In this example, siCtBP1 (SEQ. NO.1) and siCtBP2 (SEQ. NO.2) were used. Relative mean mRNA levels (±SD) were determined by RT-qPCR, performed in triplicate and in two independent experiments.
(§1) Murine RAW264.7 (A) and BV2 (B) cells were transfected with siRNAs specific for CtBP1 and CtBP2 or scrambled control siRNAs for a period of 24 h, followed by LPS stimulation (200 ng/ml) for 6 h. Total RNA was extracted and analyzed by the RT-qPCR. Relative mRNA expression was normalized to that of ACTB and depicted as fold changes vs. scrambled siRNA transfected and non-stimulated control (Untreated). Data are presented as mean±SD. n=3; **p<0.01, ***p<0.001. FIG. 2C illustrates LPS-induced binding of CtBP1, CtBP2 and p300 to the IL1β, IL6, TNFα and S100A8 gene promoters. Chromatin fractions from control and LPS-treated BV2 cells were precipitated with antibodies specific to CtBP1, CtBP2 and p300. Bars represent fold changes of relative ChIP signals normalized to the respective controls.
(§2) In this exemplary study, cells were pretreated with 0.5 or 2.5 mM MTOB for 2 h or 18 h, then with 100 ng/mL LPS for an additional 2 h before being harvested for analysis, using RT-qPCR. Bar graphs represent mean±SD of fold changes in mRNA levels. […]

RAW264.7 cells = experiment: Expression of CtBP target genes in LPS-activated RAW264.7 macrophage cell line (RT-qPCR); type: cell-based, mouse; conditions: siRNA 24 h, then LPS 200 ng/ml 6 h
Method: as §1, §2
In another exemplary method as illustrated in FIG. 11 relative CtBP1, CtBP2, IL6, S100A8, NRLP3, E-cadherin and Bax mRNA levels in RAW264.7 macrophages stimulated with 100 ng/ml of LPS for 6 h before post-treatment with MTOB for 2 h and at dosages of 0.5 mM and 2.5 mM MTOB sodium salt were analyzed. […]

[3] = test system: LPS-activated primary microglia; experiment: LPS-induced expression of CtBP target genes in primary microglia (mRNA); type: cell-based, mouse; conditions: for LPS-induced expression of the CtBP-controlled inflammatory genes: primary microglia from neonatal mouse brain, 20 μM peptide 2 h, then 200 ng/mL LPS 2 h, mRNA
[4] = test system: LPS-activated primary astrocytes; experiment: LPS-induced expression of CtBP target genes in primary astrocytes (mRNA); type: cell-based; conditions: primary astrocytes from neonatal mouse brain, data not shown
[5] = test system: isolated mouse hippocampus; experiment: LPS-induced expression of CtBP target genes in isolated mouse hippocampus; conditions: 20 mM Pep1-E1As 2 h, then 200 ng/mL LPS 2 h; mRNA, FIG. 6C
Method: In another exemplary method, a CtBP inhibitor was analyzed for effects on CtBP target gene expression using methods disclosed herein. […] FIG. 6A represents primary microglia that were incubated with 20 μM Pep1-E1As for 2 hours followed by 2 hours of treatment with 200 ng/mL LPS. Bar graphs represent mean±SD of fold changes in mRNA levels. […] FIG. 6C represents isolated mouse hippocampus that were incubated with […] Pep1-E1As for 2 hours followed by 2 hours treatment with 200 ng/mL LPS. Bar graphs represent mean±SD of fold changes in mRNA levels.

[6] = test system: repetitive mild TBI (two 0.5 J impacts 24 h apart); experiment: Repetitive mild TBI in mice (NSS, brain mRNA); type: in vivo, mouse
Method: In another exemplary experiment, mice (n=4 per group) were subjected to a single mild TBI of 0.5 J dose at 0 h (sTBI) or two doses of 0.5 J mild TBI (rTBI) that were 24 h apart, at 0 h and 24 h. Animals with rTBI were separated into three. groups untreated, intraperitoneally injected with MTOB (860 mg/kg) or NSC95397 (1.5 mg/kg) at 1 h and 18 h. Animals were tested right before the two MTOB injection (0 h and 18 h) and then daily for neurobehavioral preformance. At the end point (72 h), the brain and circulating leukocytes were collected for molecular and immunostaining analyses.
FIGS. 9A-9D. Administration of MTOB and NSC95397 after a single mild TBI effectively subdues neuroinflammation and improves neurological outcome elicited by a second mild TBI. Mice (n=4 per group) were subjected to a single mild TBI of 0.5 J dose at 0 h (sTBI) or two doses of 0.5 J mild TBI, 24 h apart, at 0 h and 24 h (rTBI). The three rTBI groups were either untreated, treated with MTOB (860 mg/kg) or NSC95397 (1.5 mg/kg) at […] and 18 h. (9A) Neurobehavioral severity scale (NSS) analysis was performed at the indicated time points after the first TBI; the scores were shown as mean+SD. (9B) Bar graphs represent mean±SD of fold changes in mRNA levels in the brain. (9A) Experimental timeline. Mice received a single head impact of 0.5 J energy (1×TBI), or two 0.5 J impacts (2×TBI) spaced 24 h apart. […]

MH-2: SEQ ID NO. 19 RRRRRRRRGGPIDLSKKA (18 aa) (Synthetic Sequence - MH-2)
imiquimod-induced epidermal proliferation (H&E, epidermis thickness) [1]: as effective in reducing imiquimod-induced epidermal proliferation as the prototype Pep1-E1A | epidermal hyperproliferation of the ear [2]: reducing epidermal hyperproliferation and immunocyte infiltration | immunocyte infiltration (CD45 immunohistochemistry) [2]: reducing epidermal hyperproliferation and immunocyte infiltration

siRNAs specific for CtBP1 and CtBP2: simultaneous use of mouse siCtBP1 (SEQ. NO.1) and siCtBP2 (SEQ. NO.2) (chain 1 UCUUCCACAGUGUGACUGCGUUAUUUU; chain 2 GCCUUUGGAUUCAGCGUCAUAUUU; listed as RNA, chemistry not given here)
mRNA expression of proinflammatory genes after knockdown (BV2 cells): suppresses mRNA expression of proinflammatory genes | mRNA expression of proinflammatory genes after knockdown (RAW264.7 cells): suppresses mRNA expression of proinflammatory genes

Pep1-E1AWT: SEQ ID NO. 5 GSHMKETWWETWWTEWSQPKKKRKVLEEPGQPLDLSCKRPRDYKDDDDK; FLAG-tagged Pep1 fusion with wild-type E1A sequence
LPS-induced expression of the CtBP-controlled inflammatory genes [3]: inhibited LPS-induced expression | LPS-induced expression of the CtBP-controlled inflammatory genes ([3]; listed as Pep1-E1A): strongly suppressed | basal mRNA levels of CDH1 and BAX (genes repressed by CtBPs) ([3]; primary microglia, FIG. 6A right panel): increased the basal mRNA levels | LPS-induced expression of the CtBP-controlled inflammatory genes [4]: inhibited LPS-induced expression | LPS-induced expression of the CtBP-controlled inflammatory genes ([4]; listed as Pep1-E1A): strongly suppressed | expression of CtBP target gene in LPS-activated isolated mouse hippocampus [5]: inhibition of expression of CtBP target gene | imiquimod-induced epidermal proliferation (H&E, epidermis thickness) [1]: reducing imiquimod-induced epidermal proliferation

O=C1C(SCCO)=C(SCCO)C(=O)c2ccccc21 [NSC95397, 2,3-Bis[(2-hydroxyethyl)thio]-1,4-naphthoquinone]
inflammatory gene induction (brain mRNA) after repetitive mild TBI ([6]; i.p. MTOB 860 mg/kg or NSC95397 1.5 mg/kg at 1 h and 18 h, 72 h after first injury): significantly reduced | neurobehavioral defects (NSS) after repetitive mild TBI ([6]; i.p. MTOB 860 mg/kg or NSC95397 1.5 mg/kg at 1 h and 18 h after first injury): significantly reduced
